Where a SMILES comes first, the peptide text is derived from it. Where no end group is shown, it is not given here. [ ]: non-standard residue; d: D form. ξ: configuration not given here. ξαMeBip(2'-Et,4'-OMe) = CCc1cc(OC)ccc1-c1ccc(CC(C)(N)C(=O)O)cc1; ξBip(2'-Et-4'-OMe) = CCc1cc(OC)ccc1-c1ccc(CC(N)C(=O)O)cc1; αMePhe(2,6-F2) = C[C@](N)(Cc1c(F)cccc1F)C(=O)O; ξαMePhe(2,6-F2) = CC(N)(Cc1c(F)cccc1F)C(=O)O; αMePhe(2-F) = C[C@](N)(Cc1ccccc1F)C(=O)O; αMeBip(OMe) = alpha-methylated Bip(OMe); ξαMe(hhPhe) = CC(N)(CCCc1ccccc1)C(=O)O; ξαMePhe(2-F) = CC(N)(Cc1ccccc1F)C(=O)O; hhPhe = N[C@@H](CCCc1ccccc1)C(=O)O; ξhhPhe = NC(CCCc1ccccc1)C(=O)O; ξαMeD = CC(N)(CC(=O)O)C(=O)O; αMeP = C[C@@]1(C(=O)O)CCCN1; ξαMeP = CC1(C(=O)O)CCCN1; ξαMeS = CC(N)(CO)C(=O)O; Ac3c = NC1(C(=O)O)CC1; Aib = CC(C)(N)C(=O)O
B1: Seq. ID. No. 211 (peptide)
peptide: VVH[Aib]EGTFTSD[αMeBip(OMe)][hhPhe]
modifications: not fully specified (C-terminus); printed as VVH-Aib-EGTFTSD-(αMe-Bip(OMe))-(APPA)

Experiments:
[1] = system: RIN5F (Rat Insulinoma) cells; test: In vitro glucose-dependent insulin secretion (RIN5F cell assay); assay type: cell-based; details: 16.7-mM glucose load, n = 3, mean ± S.D.
Description: RIN5F (Rat Insulinoma) cells were cultured in RPMI 1640 medium supplemented with sodium pyruvate (1 mM) HEPES and Glucose (4.5 g/L) in a humidified incubator (5% CO2), at 37° C. After trypsinization, RIN5F cells were seeded at a concentration of 0.2×10^6 cells per well, in 12 well plates. The cells were grown overnight to 80% confluence and insulin secretion experiments were performed as follows (Montrose-Rafizadeh C., et al., Mol. Cell. Endo. 1997, 130, 109.; Wang, X., et al., Endocrinology 2001, 5, 1820).
The cells were washed once with PBS solution followed by 40 min. incubation in fresh Krebs-Ringer Balanced Buffer containing NaCl (115 mmol/L), KCl (4.7 mmol/L), CaCl2 (1.28 mmol/L), MgSO4.7H2O (1.2 mmol/L), KH2PO4 (1.2 mmol/L), NaHCO3 (10 mmol/L) and HEPES (25 mmol/L), containing Glucose (1.1 mM) and B.S.A (0.5%), pH 7.4. The buffer was replaced after 40 min. and the cells were incubated (37° C.) with the test peptidomimetics, at different concentration, for 30 min., both in the presence (16.7 mM) and absence (0 mM) of glucose load. The supernatant was collected and the insulin amount was measured by ultra sensitive Rat insulin ELISA kit (Crystal Chem, IL). The protein was estimated in the supernatant using Bicinchoninic Acid kit, according to the manufacturer's protocol (Sigma Aldrich, MO). The total insulin content obtained in Pico-gram (pg) was divided with the total protein (μg) in order to normalize for differences in cell density between wells.

[2] = target: human glucagon receptor (human, UniProt P47871 26-477); test: cell-based or functional assay
human glucagon receptor, sequence (P47871 26-477): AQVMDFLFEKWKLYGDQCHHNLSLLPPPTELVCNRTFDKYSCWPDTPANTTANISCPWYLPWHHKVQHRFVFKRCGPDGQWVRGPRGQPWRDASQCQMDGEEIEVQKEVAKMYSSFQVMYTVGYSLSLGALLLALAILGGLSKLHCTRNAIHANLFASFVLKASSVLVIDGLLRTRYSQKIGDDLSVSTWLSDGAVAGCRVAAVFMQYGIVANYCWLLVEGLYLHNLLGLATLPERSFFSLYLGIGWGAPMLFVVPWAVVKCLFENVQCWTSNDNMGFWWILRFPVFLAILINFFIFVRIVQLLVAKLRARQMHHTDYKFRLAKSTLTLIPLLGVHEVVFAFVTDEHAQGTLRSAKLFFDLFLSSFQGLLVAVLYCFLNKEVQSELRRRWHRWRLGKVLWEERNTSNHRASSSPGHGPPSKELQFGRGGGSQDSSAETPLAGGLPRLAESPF

Molecule	Insulin secretion ([1]; 0.1 nM test compd.)	Insulin secretion ([1]; 1 nM test compd.)	Insulin secretion ([1]; 10 nM test compd.)	cAMP production (pmol/ml/µg prt) with saturated glucagon peptide, at 1 nM [2]	cAMP production (pmol/ml/µg prt) with saturated glucagon peptide, at 10 nM [2]	cAMP production (pmol/ml/µg prt) with saturated glucagon peptide, at 100 nM [2]	cAMP production (pmol/ml/µg prt) with saturated glucagon peptide, at 1 µM [2]	cAMP production (pmol/ml/µg prt) with saturated glucagon peptide, at 10 µM [2]
CCc1cc(OC)ccc1-c1ccc(CC(C)(NC(=O)C(C)(CC(=O)O)NC(=O)[C@H](CO)NC(=O)[C@@H](NC(=O)[C@H](Cc2ccccc2)NC(=O)[C@@H](NC(=O)CNC(=O)[C@H](CCC(N)=O)NC(=O)[C@H](C)NC(=O)[C@H](Cc2c[nH]cn2)NC(=O)[C@@H](N)C(C)C)[C@@H](C)O)[C@@H](C)O)C(=O)NC(C)(CCCc2ccccc2)C(N)=O)cc1 (stereo partly shown) [compound 182] (H-VHAQGTFTS[ξαMeD][ξαMeBip(2'-Et,4'-OMe)][ξαMe(hhPhe)]-NH2)	13.1 ± 0.11 pg/µg/h	14.9 ± 0.17 pg/µg/h	28.8 ± 0.44 pg/µg/h					
CCc1cc(OC)ccc1-c1ccc(CC(C)(NC(=O)[C@H](CC(=O)O)NC(=O)C(C)(CO)NC(=O)[C@@H](NC(=O)C(C)(Cc2ccccc2F)NC(=O)[C@@H](NC(=O)CNC(=O)[C@H](CCC(N)=O)NC(=O)C2(C)CCCN2C(=O)[C@H](Cc2c[nH]cn2)NC(=O)[C@@H](N)C(C)C)[C@@H](C)O)[C@@H](C)O)C(=O)NC(C)(CCCc2ccccc2)C(N)=O)cc1 (stereo partly shown) [compound 168] (H-VH[ξαMeP]QGT[ξαMePhe(2-F)]T[ξαMeS]D[ξαMeBip(2'-Et,4'-OMe)][ξαMe(hhPhe)]-NH2)	11.9 ± 0.17 pg/µg/h	14.2 ± 0.13 pg/µg/h	27.6 ± 0.16 pg/µg/h					
CCc1cc(OC)ccc1-c1ccc(CC(C)(NC(=O)[C@H](CC(=O)O)NC(=O)C(C)(CO)NC(=O)[C@@H](NC(=O)C(C)(Cc2c(F)cccc2F)NC(=O)[C@@H](NC(=O)CNC(=O)[C@H](CCC(N)=O)NC(=O)C(C)(C)NC(=O)[C@H](Cc2c[nH]cn2)NC(=O)[C@@H](N)C(C)C)[C@@H](C)O)[C@@H](C)O)C(=O)NC(C)(CCCc2ccccc2)C(N)=O)cc1 (stereo partly shown) [compound 175] (H-VH[Aib]QGT[ξαMePhe(2,6-F2)]T[ξαMeS]D[ξαMeBip(2'-Et,4'-OMe)][ξαMe(hhPhe)]-NH2)	12.4 ± 0.22 pg/µg/h	15.2 ± 0.32 pg/µg/h	29.6 ± 0.50 pg/µg/h					
CCc1cc(OC)ccc1-c1ccc(CC(NC(=O)[C@H](CC(=O)O)NC(=O)[C@H](CO)NC(=O)[C@@H](NC(=O)C(C)(Cc2c(F)cccc2F)NC(=O)[C@@H](NC(=O)CNC(=O)[C@H](CCC(=O)O)NC(=O)[C@H](CO)NC(=O)[C@H](Cc2c[nH]cn2)NC(=O)[C@@H](N)C(C)C)[C@@H](C)O)[C@@H](C)O)C(=O)NC(C)(CCCc2ccccc2)C(N)=O)cc1 (stereo partly shown) [compound 103] (H-VHSEGT[ξαMePhe(2,6-F2)]TSD[ξBip(2'-Et-4'-OMe)][ξαMe(hhPhe)]-NH2)	12.3 ± 0.33 pg/µg/h	14.1 ± 0.36 pg/µg/h	28.0 ± 0.16 pg/µg/h					
CCc1cc(OC)ccc1-c1ccc(CC(C)(NC(=O)C(C)(CC(=O)O)NC(=O)[C@H](CO)NC(=O)[C@@H](NC(=O)[C@H](Cc2ccccc2)NC(=O)[C@@H](NC(=O)CNC(=O)[C@H](CCC(N)=O)NC(=O)C2(C)CCCN2C(=O)[C@H](Cc2c[nH]cn2)NC(=O)[C@@H](N)C(C)C)[C@@H](C)O)[C@@H](C)O)C(=O)NC(CCCc2ccccc2)C(N)=O)cc1 (stereo partly shown) [compound 60] (H-VH[ξαMeP]QGTFTS[ξαMeD][ξαMeBip(2'-Et,4'-OMe)][ξhhPhe]-NH2)	15.6 ± 0.33 pg/µg/h	21.8 ± 0.16 pg/µg/h	35.6 ± 0.26 pg/µg/h					
CCc1cc(OC)ccc1-c1ccc(CC(NC(=O)C(C)(CC(=O)O)NC(=O)C(C)(CO)NC(=O)[C@@H](NC(=O)C(C)(Cc2c(F)cccc2F)NC(=O)[C@@H](NC(=O)CNC(=O)[C@H](CCC(N)=O)NC(=O)C2(C)CCCN2C(=O)[C@H](Cc2c[nH]cn2)NC(=O)[C@@H](N)C(C)C)[C@@H](C)O)[C@@H](C)O)C(=O)NC(C)(CCCc2ccccc2)C(N)=O)cc1 (stereo partly shown) [compound 126] (H-VH[ξαMeP]QGT[ξαMePhe(2,6-F2)]T[ξαMeS][ξαMeD][ξBip(2'-Et-4'-OMe)][ξαMe(hhPhe)]-NH2)	16.6 ± 0.41 pg/µg/h	22.9 ± 0.32 pg/µg/h	36.6 ± 0.19 pg/µg/h					
CCc1cc(OC)ccc1-c1ccc(CC(C)(NC(=O)[C@H](CC(=O)O)NC(=O)[C@H](CO)NC(=O)[C@@H](NC(=O)[C@H](Cc2ccccc2)NC(=O)[C@@H](NC(=O)CNC(=O)[C@H](CCC(N)=O)NC(=O)C2(NC(=O)[C@H](Cc3c[nH]cn3)NC(=O)[C@@H](N)C(C)C)CC2)[C@@H](C)O)[C@@H](C)O)C(=O)NC(CCCc2ccccc2)C(N)=O)cc1 (stereo partly shown) [compound 10] (H-VH[Ac3c]QGTFTSD[ξαMeBip(2'-Et,4'-OMe)][ξhhPhe]-NH2)	12.0 ± 0.14 pg/µg/h	14.3 ± 0.12 pg/µg/h	27.8 ± 0.32 pg/µg/h					
CCc1cc(OC)ccc1-c1ccc(CC(NC(=O)C(C)(CC(=O)O)NC(=O)C(C)(CO)NC(=O)[C@@H](NC(=O)C(C)(Cc2ccccc2F)NC(=O)[C@@H](NC(=O)CNC(=O)[C@H](CCC(=O)O)NC(=O)[C@H](CO)NC(=O)[C@H](Cc2c[nH]cn2)NC(=O)[C@@H](N)C(C)C)[C@@H](C)O)[C@@H](C)O)C(=O)NC(C)(CCCc2ccccc2)C(N)=O)cc1 (stereo partly shown) [compound 119] (H-VHSEGT[ξαMePhe(2-F)]T[ξαMeS][ξαMeD][ξBip(2'-Et-4'-OMe)][ξαMe(hhPhe)]-NH2)	12.4 ± 0.22 pg/µg/h	15.2 ± 0.32 pg/µg/h	29.6 ± 0.50 pg/µg/h					
CCc1cc(OC)ccc1-c1ccc(CC(C)(NC(=O)C(C)(CC(=O)O)NC(=O)[C@H](CO)NC(=O)[C@@H](NC(=O)C(C)(Cc2ccccc2F)NC(=O)[C@@H](NC(=O)CNC(=O)[C@H](CCC(=O)O)NC(=O)C(C)(C)NC(=O)[C@H](Cc2c[nH]cn2)NC(=O)[C@@H](N)C(C)C)[C@@H](C)O)[C@@H](C)O)C(=O)NC(CCCc2ccccc2)C(N)=O)cc1 (stereo partly shown) [compound 71] (H-VH[Aib]EGT[ξαMePhe(2-F)]TS[ξαMeD][ξαMeBip(2'-Et,4'-OMe)][ξhhPhe]-NH2)	15.6 ± 0.30 pg/µg/h	21.8 ± 0.11 pg/µg/h	35.6 ± 0.20 pg/µg/h					
CCc1cc(OC)ccc1-c1ccc(CC(NC(=O)C(C)(CC(=O)O)NC(=O)C(C)(CO)NC(=O)[C@@H](NC(=O)C(C)(Cc2c(F)cccc2F)NC(=O)[C@@H](NC(=O)CNC(=O)[C@H](CCC(=O)O)NC(=O)C2(C)CCCN2C(=O)[C@H](Cc2c[nH]cn2)NC(=O)[C@@H](N)C(C)C)[C@@H](C)O)[C@@H](C)O)C(=O)NC(C)(CCCc2ccccc2)C(N)=O)cc1 (stereo partly shown) [compound 130] (H-VH[ξαMeP]EGT[ξαMePhe(2,6-F2)]T[ξαMeS][ξαMeD][ξBip(2'-Et-4'-OMe)][ξαMe(hhPhe)]-NH2)	15.6 ± 0.33 pg/µg/h	21.8 ± 0.16 pg/µg/h	35.6 ± 0.26 pg/µg/h					
B1				6 pmol/ml/µg prt	5 pmol/ml/µg prt	2 pmol/ml/µg prt	0 pmol/ml/µg prt	0 pmol/ml/µg prt
VVHSEGTFTSD[αMeBip(OMe)][hhPhe] (not fully specified (C-terminus); printed as VVHSEGTFTSD-(αMe-Bip(OMe))-(APPA)) [Seq. ID. No. 209]				0 pmol/ml/µg prt	0 pmol/ml/µg prt	0 pmol/ml/µg prt	0 pmol/ml/µg prt	0 pmol/ml/µg prt
VVH[Aib]EGT[αMePhe(2,6-F2)]TSD[αMeBip(OMe)][hhPhe]-NH2 [Seq. ID. No. 227]				19 pmol/ml/µg prt	17 pmol/ml/µg prt	15 pmol/ml/µg prt	14 pmol/ml/µg prt	12 pmol/ml/µg prt
VVHSEGT[αMePhe(2-F)]TSD[αMeBip(OMe)][hhPhe]-NH2 [Seq. ID. No. 217]				5 pmol/ml/µg prt	2 pmol/ml/µg prt	0 pmol/ml/µg prt	0 pmol/ml/µg prt	0 pmol/ml/µg prt
VVH[αMeP]QGT[αMePhe(2-F)]TSD[αMeBip(OMe)][hhPhe]-NH2 [Seq. ID. No. 216]				0 pmol/ml/µg prt	0 pmol/ml/µg prt	0 pmol/ml/µg prt	0 pmol/ml/µg prt	0 pmol/ml/µg prt
